Assay results as given in patent US20100305068A1, “COMPOUNDS AND METHODS FOR MODULATING PROTEIN TRAFFICKING” (priority 2006, published 2010).
Where two headings read alike, the source gives them in different places.

System: pdr5 ypt1^ts cells
Assay: microbe, parasite or virus in culture
Type: cell-based, yeast
Settings: for minimal effective concentration: Saccharomyces cerevisiae, lowest concentration tested giving growth above the 0 μM background, read-out: ypt1-ts MRC (minimal rescue concentration); for minimal effective concentration / optical density, ypt1-ts, 0.39 / optical density, ypt1-ts, 0.78 / optical density, ypt1-ts, 1.56 / optical density, ypt1-ts, 3.13 / optical density, ypt1-ts, 6.25 / optical density, ypt1-ts, 12.5 / optical density, ypt1-ts, 25: Table 2; for optical density, ypt1-ts, 0.39: 0.39 μM compound; for optical density, ypt1-ts, 0.39 / optical density, ypt1-ts, 0.78 / optical density, ypt1-ts, 1.56 / optical density, ypt1-ts, 3.13 / optical density, ypt1-ts, 6.25 / optical density, ypt1-ts, 12.5 / optical density, ypt1-ts, 25: background (0 μM) 0.058; for optical density, ypt1-ts, 0.78: 0.78 μM compound; for optical density, ypt1-ts, 1.56: 1.56 μM compound; for optical density, ypt1-ts, 3.13: 3.13 μM compound; for optical density, ypt1-ts, 6.25: 6.25 μM compound; for optical density, ypt1-ts, 12.5: 12.5 μM compound; for optical density, ypt1-ts, 25: 25 μM compound
Source text: The activity of the compounds as modulators of protein trafficking may be measured in the assays described herein that evaluate the ability of a compound to rescue an impairment in protein trafficking. For example, the yeast mutant cell line ypt1^ts can be used to identify compounds that rescue cells from the lethal phenotype of a mutant YPT1 allele (see, e.g., Examples and Schmitt et al. (1988) Cell 53:635-47). The activity may be measured, for example, in a whole yeast cell assay using 384-well screening protocol and an optical density measurement.
The yeast mutant cell line ypt1^ts suppresses, in a temperature dependent fashion, the dominant-lethal phenotype of a mutant YPT1 allele (Schmitt et al. (1988) Cell 53:635-47). ypt1^ts cells grow normally at temperatures up to 30° C., but are growth arrested at 37° C. (Id.).
A library of compounds (“The Spectrum Collection”) obtained from Microsource Discovery Systems, Inc. (Gaylordsville, Conn.) was screened to assess the ability of individual compounds to restore growth of ypt1^ts cells. Screening was carried out using ypt1^ts cells containing a mutation in the pdr5 gene (resulting in inactivation of a membrane efflux pump). The effect of the compounds was measured in pdr5 ypt1^ts cells cultured at 37° C.

[1] = Table 3, 3.13 uM compound, 37° C., background (0 uM) 0.077
[2] = Table 3, 12.5 uM compound, 37° C., background (0 uM) 0.077
[3] = Table 3, 50 uM compound, 37° C., background (0 uM) 0.077

| SMILES | minimal effective concentration (37° C.) [µM] | optical density, ypt1-ts, 0.39 (37° C.) | optical density, ypt1-ts, 0.78 (37° C.) | optical density, ypt1-ts, 1.56 (37° C.) | optical density, ypt1-ts, 3.13 (37° C.) | optical density, ypt1-ts, 6.25 (37° C.) | optical density, ypt1-ts, 12.5 (37° C.) | optical density, ypt1-ts, 25 (37° C.) | optical density, 3.13 uM [1] | optical density, 12.5 uM [2] | optical density, 50 uM [3] | further results |
| --- | --- | --- | --- | --- | --- | --- | --- | --- | --- | --- | --- | --- |
| O=C(/C=C/c1ccccc1)c1ccc(O)cc1 [4'- HYDROXYCHALCONE] | 12.5 | 0.088 | 0.073 | 0.079 | 0.093 | 0.1 | 0.329 | 0.552 | – | – | – | – |
| COc1ccc(-c2cc(=O)c3ccccc3o2)cc1 [4′-METHOXYFLAVONE] | 1.56 | 0.111 | 0.077 | 0.136 | 0.474 | 0.567 | 0.556 | 0.557 | – | – | – | – |
| COc1ccccc1-c1cc(=O)c2c(OC)cccc2o1 [5,2′- DIMETHOXY- FLAVONE] | – | – | – | – | – | – | – | – | 0.088 | 0.256 | 0.383 | – |
| C=C1CCC2C(CC2(C)C)C(=C)CC/C1=N/O (centres unmarked) [5- HYDROXYIMINOISOC ARYOPHYLLENE] | 12.5 | 0.096 | 0.077 | 0.087 | 0.108 | 0.117 | 0.131 | 0.153 | – | – | – | – |
| C[C@]12CCC(=O)C[C@@H]1CC[C@@H]1[C@@H]2CC[C@]2(C)C(=O)CC[C@@H]12 [5alpha- ANDROSTAN- 3,17-DIONE] | – | – | – | – | – | – | – | – | – | – | – | optical density, 3.13 uM: 0.11; optical density, 12.5 uM: 0.16; optical density, 50 uM: 0.319 |
| C=C1C([C@@]2(C)[C@@H](C)CC(=O)C(C)(C)[C@@H]2C(OC(C)=O)C(=O)OC)CC[C@@]2(C)[C@H](c3ccoc3)OC(=O)C[C@]12O (some centres unmarked) [6-ACETOXY- […] METHYL ESTER] | – | – | – | – | – | – | – | – | 0.131 | 0.364 | 0.489 | – |
| C=C1C2CC[C@@]3(C)[C@H](c4ccoc4)OC(=O)C[C@]13O[C@H]1CC(=O)C(C)(C)[C@H](C(O)C(=O)OC)[C@@]21C (some centres unmarked) [6-HYDROXY- […] METHYL ESTER] | – | – | – | – | – | – | – | – | 0.232 | 0.561 | 0.626 | – |
| COc1ccc2c(=O)cc(-c3ccccc3OC)oc2c1 [7,2′- DIMETHOXY- FLAVONE] | – | – | – | – | – | – | – | – | 0.098 | 0.156 | 0.3 | – |
| COc1ccc(-c2coc3cc(OC)ccc3c2=O)cc1 [7,4′- DIMETH- OXYISO- FLAVONE] | – | – | – | – | – | – | – | – | 0.222 | 0.551 | 0.513 | – |
| CC1(C)C(=O)C=C[C@@]2(C)C1CC(=O)[C@@]1(C)C3=CC(=O)O[C@@H](c4ccoc4)[C@]3(C)CCC12 (some centres unmarked) [7-DEACETOXY- 7-OXODEOXY- GEDUNIN] | – | – | – | – | – | – | – | – | 0.335 | 0.604 | 0.67 | – |
| CC1(C)C(=O)C=C[C@]2(C)[C@H]3CC[C@@]4(C)[C@H](c5ccoc5)OC(=O)[C@H]5O[C@]54[C@]3(C)C=C[C@@H]12 [7-DESACETOXY-6,7- DEHYDROGEDUNIN] | 12.5 | 0.094 | 0.071 | 0.074 | 0.093 | 0.099 | 0.171 | 0.308 | – | – | – | – |
| COc1ccc(-c2coc3c(OC)c(O)ccc3c2=O)cc1 [7-HYDROXY- 8,4′-DIMETH- OXYISO- FLAVONE] | – | – | – | – | – | – | – | – | 0.121 | 0.151 | 0.398 | – |
